For 10 molecules, EC50 results are on record in US11951094B2, “TLR2 modulator compounds, pharmaceutical compositions and uses thereof” (Axial Therapeutics, Inc., priority 2020, dated 2024).

The target of the first assay is TLR2 (Homo sapiens, UniProt O60603). Put plainly: TLR2 agonist screening assay, HEK-Blue TLR2 reporter cell line (NF-kB-driven SEAP, absorbance at 600 nm). Details: host or cells: HEK-293 (HEK-Blue TLR2 reporter cell line). The note with it: HEK-Blue TLR2 reporter cells, agonist mode; average of all runs (Table 3). Format: cell-based. Put shortly: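 Read-out: SEAP colour change, A600, after overnight agonist exposure. Cells: HEK-293 overexpressing TLR2, NF-kB-SEAP reporter, ~40,000/well, plated 16-24 h prior.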
Chain of TLR2 (O60603 21-784): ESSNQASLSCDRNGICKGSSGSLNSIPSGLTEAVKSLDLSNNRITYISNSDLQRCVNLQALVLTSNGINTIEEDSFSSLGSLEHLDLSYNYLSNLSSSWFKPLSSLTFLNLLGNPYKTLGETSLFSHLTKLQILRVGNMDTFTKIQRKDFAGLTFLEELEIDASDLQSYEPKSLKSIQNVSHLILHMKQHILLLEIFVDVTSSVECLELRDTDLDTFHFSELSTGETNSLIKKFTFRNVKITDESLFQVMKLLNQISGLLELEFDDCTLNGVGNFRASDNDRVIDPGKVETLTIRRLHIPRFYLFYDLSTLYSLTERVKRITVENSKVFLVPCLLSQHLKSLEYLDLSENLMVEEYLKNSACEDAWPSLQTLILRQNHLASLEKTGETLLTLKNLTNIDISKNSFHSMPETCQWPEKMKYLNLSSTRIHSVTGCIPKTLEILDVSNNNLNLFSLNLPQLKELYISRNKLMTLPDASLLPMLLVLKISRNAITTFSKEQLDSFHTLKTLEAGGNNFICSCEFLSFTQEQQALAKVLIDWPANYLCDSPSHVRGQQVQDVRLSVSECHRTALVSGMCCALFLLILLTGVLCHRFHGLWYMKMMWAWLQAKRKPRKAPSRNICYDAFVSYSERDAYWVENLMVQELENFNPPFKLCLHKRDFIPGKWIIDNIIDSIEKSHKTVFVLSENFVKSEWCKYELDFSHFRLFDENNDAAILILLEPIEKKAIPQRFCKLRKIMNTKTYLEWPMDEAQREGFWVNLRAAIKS
By EC50 is commonly meant the concentration giving half of the maximal effect. Higher therefore signals a need for much substance. `CCCCCCCCCCCCCCNC(=O)C1CCN(C(=O)c2ccc(C(=O)N3C[C@@H](C(=O)N[C@H]4C[C@@H]4c4ccccc4)[C@H](C(=O)N[C@H]4C[C@@H]4c4ccccc4)C3)cc2)CC1` [Compound 010] showed an EC50 of over 1000 nM.

In turn, `CCCCCCNC(=O)[C@H](CCNC(=O)CCCCCC)NC(=O)c1ccc(C(=O)N2C[C@@H](C(=O)N[C@H]3C[C@@H]3c3ccccc3)[C@H](C(=O)N[C@H]3C[C@@H]3c3ccccc3)C2)cc1` [Compound 021] displayed a 50% effective concentration (EC50) of over 1000 nM.

`CCCCCCCC(=O)N1CCN(C(=O)c2ccc(C(=O)N3C[C@@H](C(=O)N[C@H]4C[C@@H]4c4ccccc4)[C@H](C(=O)N[C@H]4C[C@@H]4c4ccccc4)C3)cc2)CC1C(=O)NCC` (stereo partly drawn) [Compound 048, (3S,4S)-1-(4-(3-(ethylcarbamoyl)-4-octanoylpiperazine-1-carbonyl)benzoyl)-N3,N4-bis ((1S,2R)-2-phenylcyclopropyl) pyrrolidine-3,4-dicarboxamide] returned an EC50 of 351 to 1000 nM.

`CCCCCCNC(=O)C1CN(C(=O)c2ccc(C(=O)N3C[C@@H](C(=O)N[C@H]4C[C@@H]4c4ccccc4)[C@H](C(=O)N[C@H]4C[C@@H]4c4ccccc4)C3)cc2)CCN1C(=O)NCCCCCC` (stereo partly shown) [Compound 049] showed an EC50 of over 1000 nM.

Take `CCCCCCCC(=O)N1CCN(C(=O)c2ccc(C(=O)N3C[C@@H](C(=O)N[C@H]4C[C@@H]4c4ccccc4)[C@H](C(=O)N[C@H]4C[C@@H]4c4ccccc4)C3)cc2)CC1C(=O)NCCCCC` (stereo partly drawn) [Compound 052, (3S,4S)-1-(4-(4-octanoyl-3-(pentylcarbamoyl)piperazine-1-carbonyl)benzoyl)-N3,N4-bis((1S,2R)-2-phenylcyclopropyl)pyrrolidine-3,4-dicarboxamide]: the EC50 lay within 0.1 to 50 nM.

The assay is the same for the next values; noted with them: HEK-Blue TLR2 reporter cells, agonist mode; average of all runs (Table 4).
As to `CCCCCCCCCCCNC(=O)[C@@H]1CN(C(=O)c2ccc(C(=O)N3C[C@@H](C(=O)N[C@H]4C[C@@H]4c4ccccc4)[C@H](C(=O)N[C@H]4C[C@@H]4c4ccccc4)C3)cc2)CCN1C(C)=O` [Compound 256, (3S,4S)-1-(4-((S)-4-acetyl-3-(undecylcarbamoyl)piperazine-1-carbonyl)benzoyl)-N3,N4-bis((1S,2R)-2-phenylcyclopropyl) pyrrolidine-3,4-dicarboxamide], the EC50 is over 1000 nM.

Consider `CCCCCCCCCC(=O)N[C@@H](CNCc1ccc(C(=O)N2C[C@@H](C(=O)N[C@H]3C[C@@H]3c3ccccc3)[C@H](C(=O)N[C@H]3C[C@@H]3c3ccccc3)C2)cc1)C(=O)NCCCCCC` [Compound 266, (3S,4S)-1-(4-((((S)-2-decanamido-3-(hexylamino)-3-oxopropyl)amino)methyl)benzoyl)-N3,N4-bis((1S,2R)-2-phenylcyclopropyl) pyrrolidine-3,4-dicarboxamide], for which the 50% effective concentration (EC50) fell in the range of 351 to 1000 nM.

`CCCCCCCCCCCCCCC(=O)N1CCC[C@H](NC(=O)c2ccc(C(=O)N3C[C@@H](C(=O)N[C@H]4C[C@@H]4c4ccccc4)[C@H](C(=O)N[C@H]4C[C@@H]4c4ccccc4)C3)cc2)C1` [Compound 125, (3S,4S)-1-(4-(((S)-1-pentadecanoylpiperidin-3-yl)carbamoyl)benzoyl)-N3,N4-bis((1S,2R)-2-phenylcyclopropyl)pyrrolidine-3,4-dicarboxamide] showed a concentration giving a half-maximal response (EC50) of over 1000 nM.

As for `CCCCCCCCCCCCCCNC(=O)[C@H]1CN(C(c2ccc(C(=O)N3C[C@@H](C(=O)N[C@H]4C[C@@H]4c4ccccc4)[C@H](C(=O)N[C@H]4C[C@@H]4c4ccccc4)C3)cc2)C(F)(F)F)CCN1C` (stereo partly drawn) [Compound 132, (3S,4S)—N3,N4-bis((1S,2R)-2-phenylcyclopropyl)-1-(4-(2,2,2-trifluoro-1-((R)-4-methyl-3-(tetradecylcarbamoyl)piperazin-1-yl)ethyl)benzoyl)pyrrolidine-3,4-dicarboxamide], the concentration giving a half-maximal response (EC50) was in the range of 51 to 350 nM.

With `CCCCCCCCCCCCNC(=O)[C@@H]1CN(C(=O)c2ccc(C(=O)N3C[C@@H](C(=O)N[C@H]4C[C@@H]4c4ccccc4)[C@H](C(=O)N[C@H]4C[C@@H]4c4ccccc4)C3)cc2)CCN1C(C)=O` [Compound 255, (3S,4S)-1-(4-((S)-4-acetyl-3-(dodecylcarbamoyl)piperazine-1-carbonyl)benzoyl)-N3,N4-bis((1S,2R)-2-phenylcyclopropyl)pyrrolidine-3,4-dicarboxamide], the EC50 was over 1000 nM.
